Source: patent publication US7781393B2, “Methods for inhibiting tumor cell growth” (Dana-Farber Cancer Institute, Inc., priority 2004, dated 2010)

Columns and labels:
HIF-1α = HIF-1α DNA binding activity ELISA; format: cell-based, human
Procedure: Flow cytometric analyses for IGF-1R, and IGF-2R were performed as previously described on a EPICS-XL-MCL flow cytometer (Beckman Coulter). Previously described protocols were applied for immunoblotting analyses; TRAP telomerase activity assay; 20S proteasome chymotryptic activity assay; DNA binding activity ELISAs for quantitative assessments of NF-κB and HIF-1a transcriptional activities. VEGF and IGF-1 ELISAs were performed according to manufacturer's instructions (R&D Systems, Minneapolis, Minn.). 20S proteasome chymotryptic activity assay was performed as described [Shringarpure 2003]. The transcriptional activity of DNA binding activity of NF-κB and HIF-1α was measured as previously reported. Libermann T A, et al., . Proc Natl Acad Sci USA; 2002 99: 14374-14379; Mitsiades N. et al., 2002, 99: 4079-4086; Mitsiades N. et al., 2002; Blood 99: 4525-4530 and Mitsiades N., et al 2003 Blood; 101: 2377-2380.

BM stromal cells (BMSCs) = experiment: Viability of bone marrow stromal cells (MTT); format: cell-based, human; settings: 500 nM for 72 hrs
Procedure: Primary MM patient samples were freshly isolated from bone marrow aspirates from patients undergoing diagnostic or restaging bone marrow aspirates under an IRB-approved protocol. MM cells were purified using custom-made RosetteSep cocktail of monoclonal antibodies (mAb's) (StemCell Technologies Inc, Vancouver, Canada) for negative selection of CD138^+ MM cells. The CD138^− fraction of the MM cell purification process was cultured in 20% FBS-supplemented media for isolation of the adherent bone marrow stromal cells. Peripheral blood B cells were isolated by ficoll-density centrifugation of peripheral blood samples from MM patients. […] […] At the end of each treatment, cells were incubated with 1 mg/ml MTT for 4 hours at 37° C.; a mixture of isopropanol and 1N HCl (23:2, v/v) was then added under vigorous pipetting to dissolve the formazan crystals. Dye absorbance (A) in viable cells was measured at 570 nm, with 630 nm as a reference wavelength. Cell survival was estimated as a percentage of the value of untreated controls. All experiments were repeated at least three times, and each experimental condition was repeated at least in quadruplicate wells in each experiment.

## Nc1ncnc2c1c(-c1cccc(OCc3ccccc3)c1)cn2[C@H]1C[C@H](CN2CCCC2)C1 [ADW-742, trans-5-(3-benzyloxy-phenyl)-7-(3-pyrrolidin-1-ylmethyl-cyclobutyl)-7H-pyrrolo[2,3-d]pyrimidin-4-ylamine]
HIF-1α
  IGF-1-induced HIF-1α activity: suppress
BM stromal cells (BMSCs)
  viability of BM stromal cells: does not significantly affect
